This is an account of results in paper PMC3870299, “Comparative genomics and functional analysis of rhamnose catabolic pathways and regulons in bacteria” (Frontiers in Microbiology, 2013).

One data set has as its target T1, RhaR (Chloroflexus aurantiacus, UniProt A9WGG7).
T1 construct: gene Caur_2290
As to the kind of experiment: EMSA, loss of RhaR-DNA binding. To be noted: effector at 2 mM; RhaR 1 uM; pH 8.0; 50 C; L-rhamnulose made enzymatically from L-Rha by Ec_RhaA; Figure 5 legend prints L-rhamnose for this effect (apparent misprint). A general note: A gel shift assay detects complexes by their altered migration in electrophoresis.

Another data set has as its target T2, Ca_RhaEW (Chloroflexus aurantiacus, UniProt A9WGG0).
T2 construct: gene Caur_2283; full-length, N-terminal His6 tag, expressed in E. coli, Ni-NTA purified
As to the kind of experiment: coupled NADH detection at […] nm and GC-MS of products. The note with it: substrate made in situ from L-Rha by Ec_RhaA and Tm_RhaB, NAD+ 1.4 mM, Zn2+, pH 8, 30-70 C. Format: biochemical.

A further data set has as its target T3, Bs_RhaEW (Bacillus subtilis, UniProt P40747).
T3 construct: gene yuxG; full-length, N-terminal His6 tag, expressed in E. coli, Ni-NTA purified
As to the kind of experiment: coupled NADH detection at […] nm. Format: biochemical. To be noted: substrate made in situ from L-Rha by Ec_RhaA and Tm_RhaB; NAD+ 2.5 mM; Zn2+; pH 7.5; 25 C.

The next data set concerns the target T4, St_RhaZ (Salmonella enterica, UniProt Q8ZKS2).
T4 construct: gene STM4044; full-length, N-terminal His6 tag, expressed in E. coli, Ni-NTA purified
T4 sequence (Q8ZKS2 1-382): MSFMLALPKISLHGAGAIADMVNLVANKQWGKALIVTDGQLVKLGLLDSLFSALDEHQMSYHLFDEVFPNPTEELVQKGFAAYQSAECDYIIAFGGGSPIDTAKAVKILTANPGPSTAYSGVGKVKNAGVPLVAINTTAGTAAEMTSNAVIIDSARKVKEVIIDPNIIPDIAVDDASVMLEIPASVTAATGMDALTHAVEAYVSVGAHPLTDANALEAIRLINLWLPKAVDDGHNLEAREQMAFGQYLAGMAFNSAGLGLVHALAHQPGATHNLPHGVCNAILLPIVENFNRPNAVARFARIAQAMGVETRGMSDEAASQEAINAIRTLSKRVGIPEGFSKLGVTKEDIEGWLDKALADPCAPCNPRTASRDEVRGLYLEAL
As to the kind of experiment: coupled NADH oxidation at […] nm. Format: biochemical. The note with it: substrate made in situ by Ec_RhaA, Tm_RhaB and St_RhaD; NADH 0.25 mM; pH 7.5; 25 C; no dehydrogenase activity with NAD+. The text has this: St_RhaZ was active under these conditions

The next data set has as its target T5, RhaR (DeoR family) (Chloroflexus aurantiacus J-10-fl, UniProt A9WGG7 1-260).
T5 sequence: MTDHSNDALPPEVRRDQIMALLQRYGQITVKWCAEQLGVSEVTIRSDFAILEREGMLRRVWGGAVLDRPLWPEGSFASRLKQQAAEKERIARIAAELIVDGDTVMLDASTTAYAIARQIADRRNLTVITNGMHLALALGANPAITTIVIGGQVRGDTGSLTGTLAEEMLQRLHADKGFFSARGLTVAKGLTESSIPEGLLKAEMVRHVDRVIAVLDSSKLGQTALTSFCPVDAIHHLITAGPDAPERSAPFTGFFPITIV
Put plainly: EMSA; RhaR 0.25-1 uM, no effector; poly(dI-dC); EMSA: 50 mM Tris-HCl pH 8.0, 150 mM NaCl, 5 mM MgCl2, 1 mM DTT (printed DDT), 0.05% NP-40, 2.5% glycerol, 1 ug poly(dI-dC), 0.2 nM DNA, 20 ul, 25 min at 50 C; 1.5% agarose gel at room temperature. The note with it: protein: recombinant; tags: His6-Smt3 (SUMO) N-terminal tag, cleaved with Ulp1; blunt.

T2 sequence (A9WGG0 entry or part of it): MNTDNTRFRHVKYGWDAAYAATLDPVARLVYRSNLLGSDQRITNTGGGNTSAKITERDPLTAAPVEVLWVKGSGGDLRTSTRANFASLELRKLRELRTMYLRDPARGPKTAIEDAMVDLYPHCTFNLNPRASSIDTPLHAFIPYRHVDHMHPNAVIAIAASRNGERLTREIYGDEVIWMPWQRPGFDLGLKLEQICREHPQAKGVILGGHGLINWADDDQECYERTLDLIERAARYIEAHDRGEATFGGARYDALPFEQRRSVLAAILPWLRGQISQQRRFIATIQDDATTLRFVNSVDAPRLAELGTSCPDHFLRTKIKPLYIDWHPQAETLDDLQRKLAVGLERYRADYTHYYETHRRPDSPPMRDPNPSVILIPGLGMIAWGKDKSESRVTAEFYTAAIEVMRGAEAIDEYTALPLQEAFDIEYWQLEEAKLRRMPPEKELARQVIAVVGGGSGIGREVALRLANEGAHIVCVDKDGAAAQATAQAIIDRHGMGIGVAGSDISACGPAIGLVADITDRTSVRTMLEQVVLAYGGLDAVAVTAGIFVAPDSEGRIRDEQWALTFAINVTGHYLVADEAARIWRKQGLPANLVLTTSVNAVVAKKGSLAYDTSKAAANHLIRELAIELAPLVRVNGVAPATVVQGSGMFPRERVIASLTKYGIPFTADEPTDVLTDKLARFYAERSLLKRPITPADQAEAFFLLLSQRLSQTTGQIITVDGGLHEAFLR
T3 sequence (P40747 whole entry): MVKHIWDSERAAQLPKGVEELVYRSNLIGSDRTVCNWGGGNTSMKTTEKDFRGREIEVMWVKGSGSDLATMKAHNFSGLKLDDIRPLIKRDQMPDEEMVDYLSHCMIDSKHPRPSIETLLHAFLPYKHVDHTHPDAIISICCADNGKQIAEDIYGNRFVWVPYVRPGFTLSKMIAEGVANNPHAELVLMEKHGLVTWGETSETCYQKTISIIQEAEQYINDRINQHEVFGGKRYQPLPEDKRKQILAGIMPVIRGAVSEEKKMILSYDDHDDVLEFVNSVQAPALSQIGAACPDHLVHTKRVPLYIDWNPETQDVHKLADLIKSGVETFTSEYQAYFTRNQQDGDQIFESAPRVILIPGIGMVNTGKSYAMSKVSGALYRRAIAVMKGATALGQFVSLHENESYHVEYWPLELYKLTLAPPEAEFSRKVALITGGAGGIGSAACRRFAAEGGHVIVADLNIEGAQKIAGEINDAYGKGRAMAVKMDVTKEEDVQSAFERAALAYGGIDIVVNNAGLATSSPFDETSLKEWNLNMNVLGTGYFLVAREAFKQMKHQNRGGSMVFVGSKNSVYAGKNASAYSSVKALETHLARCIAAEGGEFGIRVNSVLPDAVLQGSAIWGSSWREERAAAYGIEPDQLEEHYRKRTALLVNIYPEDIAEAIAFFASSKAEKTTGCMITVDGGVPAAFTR

`C[C@@H]1OC(O)(CO)[C@H](O)[C@H]1O` (stereo partly drawn) [L-rhamnulose]: at RhaR, the “EMSA, loss of RhaR-DNA binding” value is listed as “L-rhamnulose abolished the specific DNA-binding ability of RhaR”.

Take `NC(=O)c1ccc[n+]([C@@H]2O[C@H](COP(=O)(O)OP(=O)(O)OC[C@H]3O[C@@H](n4cnc5c(N)ncnc54)[C@H](O)[C@@H]3O)[C@@H](O)[C@H]2O)c1` [NAD^+]: at Ca_RhaEW (no product without NAD+, no activity with NADH), the “coupled NADH detection at 340 nm and GC-MS of products” value was “exclusion of NAD^+ which is an essential cofactor of L-lactaldehyde dehydrogenase”. Further, the “coupled NADH detection at 340 nm” value at Bs_RhaEW was “the reduction of NAD^+ or oxidation of NADH was monitored”. Take `NC(=O)C1=CN([C@@H]2O[C@H](COP(=O)(O)OP(=O)(O)OC[C@H]3O[C@@H](n4cnc5c(N)ncnc54)[C@H](O)[C@@H]3O)[C@@H](O)[C@H]2O)C=CC1` [NADH]: the “coupled NADH oxidation at 340 nm” value at St_RhaZ is listed as “with the exception of supplying NADH as the cofactor. St_RhaZ was active under these conditions”. On to `C[C@H](O)[C@H](O)[C@@H](O)C(=O)COP(=O)(O)O` [L-rhamnulose-1-P], for which the “coupled NADH detection at 340 nm and GC-MS of products” value at Ca_RhaEW was “Ca_RhaEW acts in vitro to convert L-rhamnulose-1-P to L-lactate and DHAP”. Further, on Bs_RhaEW, the “coupled NADH detection at 340 nm” value is “The Bs_RhaEW protein showed weak, but reproducible activity”.

B1: rhaR upstream 48-bp fragment (38-bp RhaR operator) (dsDNA)
DNA 1: GGGGGTTCGTAAAATCTCGTAAGTACTTGACAAATCTTGAAAAGGGGG
DNA 2: CCCCCTTTTCAAGATTTGTCAAGTACTTACGAGATTTTACGAACCCCC
As for B1, the binding result in the data set with RhaR (DeoR family) was “binds”.
